Measurements from article PMC8643619 (Plant and Cell Physiology, 2021).

How the values were obtained:
[1] = tested on: PcAAE2; test: coupled NADH oxidation assay; type: biochemical, Pogostemon cablin; conditions: 10 mM MgCl2, pH 7.5, 30°C
[2] = tested on: PcAAE1; test: coupled NADH oxidation assay; type: biochemical, Pogostemon cablin; conditions: 10 mM MgCl2, pH 7.5, 30°C

SMILES | Km ([1]; 1 mM CoA, 5 mM ATP) [µM] | also measured
CC(C)CCC(=O)O [4-Methylvaleric acid] | 43.4 ± 5.1 | –
CC(C)CC(=O)O [Isovaleric acid] | 217 ± 13.1 | Km ([2]; 1 mM CoA, 5 mM ATP): 12.9 ± 0.8 µM
CCCC(=O)O [Butyric acid] | 570 ± 86.5 | Km ([2]; 1 mM CoA, 5 mM ATP): 161 ± 5 µM
CCCCCCC(=O)O [Heptanoic acid] | 84.5 ± 7.1 | –
Nc1ncnc2c1ncn2[C@@H]1O[C@H](COP(=O)(O)OP(=O)(O)OP(=O)(O)O)[C@@H](O)[C@H]1O [ATP] | – | Km ([2]; co-substrate isovaleric acid 1 mM, CoA 1 mM): 89 µM; Km ([1]; co-substrate 4-methylvaleric acid 1 mM, CoA 1 mM): 160 µM
CCCCCC(=O)O [Hexanoic acid] | 41.5 ± 2.4 | –
CCCCC(=O)O [Valeric acid] | 53.9 ± 2.7 | –
CC(C)CCCC(=O)O [5-Methylhexanoic acid] | 176 ± 20 | –
CC(C)(COP(=O)(O)OP(=O)(O)OC[C@H]1O[C@@H](n2cnc3c(N)ncnc32)[C@H](O)[C@@H]1OP(=O)(O)O)[C@@H](O)C(=O)NCCC(=O)NCCS [CoA] | – | Km ([2]; co-substrate isovaleric acid 1 mM, 5 mM ATP): 28.2 µM; Km ([1]; co-substrate 4-methylvaleric acid 1 mM, 5 mM ATP): 40.2 µM
